Tests used:
CF-1 male albino mice = experiment: Maximal Electroshock Test (MES); assay type: in vivo; settings: oral; for MES Activity (in words): time not stated
Procedure: Anticonvulsant activity was determined using the MES test, run according to the procedure described in detail below. Swinyard E A, Woodhead J H, White H S, Franklin M R. Experimental selection, quantification, and evaluation of anticonvulsants. In Levy R H, et al., eds. Antiepileptic Drugs. 3rd ed. New York: Raven Press, 1989:85-102
CF-1 male albino mice (25-35 g) were fasted for 16 hours before testing. Mice were randomly selected into control and test groups, with the animals dosed with vehicle or test compound, at varying concentrations, respectively. On the study date, at 30 minutes prior to shock, the mice were orally dosed with vehicle (0.5% methylcellulose) or test compound (100-300 mg/kg). Seizures were induced by trans-corneal electric shock using a 60-Hz alternating current, 50 mA, delivered for 0.2 sec. The mice in the test groups were subjected to electrical stimulus at time intervals between 15 minutes and 4 hours following administration of test compound. […] The test was complete when the entire course of the convulsion has been observed (typically, less than 1 minute after electrical stimulation), and the mice were then immediately euthanized by carbon dioxide inhalation.
Abolition of the full body tonic extensor component of the seizure was taken as the endpoint of the test. […] The ED50 value of the test compound (calculated when appropriate) was the calculated dose required to block the hind limb tonic-extensor component of the MES-induced seizure in 50% of the rodents tested. A probit analysis was used to calculate the ED50 and 95% fiducial limits (FL).
Representative compounds of the present invention were tested according to the procedure described above, with results as listed in Table 4 below. Results are listed as number of mice with full body tonic extension prevented/total number of mice tested @ time (at a given test compound dosage level).

carbonic anhydrase = settings: background statement, no assay details; cited from earlier work

Structure (SMILES)	melting point	also measured
NS(=O)(=O)OC[C@H]1COc2cc(Cl)ccc2O1 (stereo in doubt) [ID No. 12, Sulfamic acid, 6-chloro-2,3-dihydro-benzo[1,4]dioxin-2-ylmethyl ester]	113 to 116 °C	
NS(=O)(=O)NC[C@H]1COc2ccccc2O1 [ID No. 4, (2S)-(−)-N-(2,3-Dihydro-benzo[1,4]dioxin-2-ylmethyl)-sulfamide]		MES Activity: number of mice with full body tonic extension prevented/total number of mice tested (CF-1 male albino mice; 300 mg/kg, @ 1 h): 5/5 @ 1 h (300 mg/kg)
CN(C)S(=O)(=O)NCC1COc2ccccc2O1 (stereo not shown) [ID No. 6, N-(2,3-Dihydro-benzo[1,4]dioxin-2-ylmethyl)-N′,N′ dimethylsulfamide]	76 to 78 °C	
CN(CC1COc2ccccc2O1)S(N)(=O)=O (stereo not shown) [ID No. 7, N-(2,3-Dihydro-benzo[1,4]dioxin-2-ylmethyl)-N-methylsulfamide]	97 to 98 °C	
NS(=O)(=O)NCC1CCc2ccccc2O1 (stereo not shown) [ID No. 10, Chroman-2-ylmethylsulfamide]	100 to 101 °C	
NS(=O)(=O)OCC1CCc2ccccc2O1 (stereo not shown) [ID No. 11, Chroman-2-ylmethylsulfamate]	87 to 90 °C	
NS(=O)(=O)NCCC1COc2ccccc2O1 (stereo not shown) [ID No. 16, 2-(2,3-Dihydro-benzo[1,4]dioxin-2-yl)-ethylsulfamide]	101 to 103 °C	MES Activity: number of mice with full body tonic extension prevented/total number of mice tested (CF-1 male albino mice; 300 mg/kg, @ 0.5 h): 5/5 @ 0.5 h (300 mg/kg)
Cc1ccc2c(c1)O[C@@H](CNS(N)(=O)=O)CO2 [ID No. 19, (2S)-(−)-N-(7-Methyl-2,3-dihydro-benzo[1,4]dioxin-2-ylmethyl)-sulfamide]		MES Activity: number of mice with full body tonic extension prevented/total number of mice tested (CF-1 male albino mice; 300 mg/kg, @ 0.5 h): 5/5 @ 0.5 h (300 mg/kg)
NS(=O)(=O)OC[C@H]1COc2cc(Cl)c(Cl)cc2O1 [ID No. 27, Sulfamic acid, 6.7 dichloro-2,3-dihydro-benzo[1,4]dioxin-2-ylmethyl ester]	109 to 111 °C	MES Activity: number of mice with full body tonic extension prevented/total number of mice tested (CF-1 male albino mice; 100 mg/kg, @ 4 h): 5/5 @ 4 h (100 mg/kg)
NS(=O)(=O)NC[C@H]1COc2cc(Cl)c(Cl)cc2O1 [ID No. 29, (2S)-(−)-N-(6,7 Dichloro-2,3-dihydro-benzo[1,4]dioxin-2-ylmethyl)-sulfamide]	119 to 121 °C	MES Activity: number of mice with full body tonic extension prevented/total number of mice tested (CF-1 male albino mice; 100 mg/kg, @ 4 h): 3/5 @ 4 h (100 mg/kg)
Nc1ccc2c(c1)O[C@@H](CNS(N)(=O)=O)CO2 [ID No. 36, (2S)-(−)-N-(7-Amino-2,3-dihydro-benzo[1,4]dioxin-2-ylmethyl)-sulfamide]		MES Activity (in words) (CF-1 male albino mice; 100 mg/kg): Inactive @ 100 and 300 mg/kg; MES Activity (in words) (CF-1 male albino mice; 300 mg/kg): Inactive @ 100 and 300 mg/kg
CC1(C)O[C@@H]2[C@@H](CO[C@@]3(COS(N)(=O)=O)OC(C)(C)O[C@@H]23)O1 [Topiramate]		carbonic anhydrase inhibition (carbonic anhydrase): single digit micromolar

Source: patent publication US8084490B2, “Sulfamate and sulfamide derivatives useful for the treatment of epilepsy and related disorders” (Janssen Pharmaceutica N.V., priority 2004, dated 2011)
